Earlier results as cited in US11529445B2, “Methods and apparatus for kidney dialysis and extracorporeal detoxification” (HIBAR Microsciences LLC, priority 2013, dated 2022).

Test system: Connexin-43
Conditions: cell culture models; concentrations commonly found among ESRD patients

For `Cc1ccc(O)cc1` [p-cresol], the “degradation of Connexin-43 within cardiac gap junctions” value is given as “dose-dependent degradation of Connexin-43”.
